Measurements taken from patent publication US5162354A, “3-halo-5-halomethyl-2-oxazolidinones and their use as microbicides” (Buckman Laboratories International, Inc., priority 1991, dated 1992).
In brackets after ≈: the same amount, converted by molar mass. Like-named read-outs stand apart in the source and are kept apart here.

Tests used:
Type in all cases: cell-based
Enterobacter aerogenes = experiment: Basal salts method, minimum inhibitory concentration against Enterobacter aerogenes; settings: Klebsiella aerogenes, at least 80% kill
Method: Compounds 1-4 of Examples 3-6 of the present invention were tested by the basal salts method described in U.S. Pat. No. 2,881,070 at column 5, beginning at line 12 and extending to column 6, line 53. […] The minimum inhibitory concentrations are those in which a percentage kill of at least 80% is obtained.

Aspergillus niger = experiment: Growth inhibiting activity on the fungus Aspergillus niger; settings: Aspergillus niger pH 6.0; completely prevented growth; read-out: Minimum inhibitory concentration against fungi
Method: The microorganism growth inhibiting activity of compounds 1-4 on the fungus Aspergillus niger was evaluated. The method is described in U.S. Pat. No. 4,945,109, column 5 beginning at line 47 to column 6, line 33. The disclosure of U.S. Pat. No. 4,945,109 is incorporated herein by reference.

Chlorella pyrenoidosa = experiment: Growth inhibiting activity against algae in Difco Algae Broth (Chlorella pyrenoidosa); settings: Auxenochlorella pyrenoidosa, 672 h
Method: (§1) The growth inhibiting activity of the method of the invention against the three algae Chlorella pyrenoidosa, Chlorococcum hypnosporum and Phormidium inundatum was evaluated in Difco Algae Broth, the content of which was as follows:
(§2) Forty-gram portions of the algae medium were added to 250 mL Pyrex Erlenmeyer flasks fitted with loose metal caps and then sterilized. Each of the following substances was then added to the flasks in the order listed:
(§3) 1. Sterile algae medium as required to bring the total weight of the contents of each flask to 50 grams, after allowing for all subsequent additions specified below.
(§4) 2. A solution of one of compounds 1-4 or of a control agent to be evaluated in each test, to give the concentration desired in parts per million by weight.
(§5) 3. Chlorella pyrenoidosa, Chlorococcum hypnosporum and Phormidium inundatum in amounts sufficient to give excellent growth in the controls after 14 days. This was achieved by adding 1 milliliter of a 14 day old culture having luxuriant growth. The Chlorella pyrenoidosa culture was obtained from American Type Culture Collection No. 7516; Chlorococcum hypnosporum, from the University of TX at Austin; and Phormidium inundatum, WI No. 1093, from the University of WA.
(§6) As a control experiment, WSCP was used as a positive control agent. WSCP is a known toxicant which kills C. pyrenoidosa at 2 ppm, C. hypnosporum at 2ppm, and P. inundatum at 10 ppm. Control experiments were also carried out where no toxicants were employed. In the algicidal tests, the growth of algae in the nutrient medium is lush green and can be seen with the naked eye. Because the minimum inhibitory concentrations of the compounds in this example are those which result in complete inhibition, evaluation of the test results is not subjective.
(§7) After the inoculum of the test algae was added, the flasks were incubated at a temperature of 28°±2° C. under fluorescent illumination of 250 foot-candle intensity (8 hours light, 16 hours darkness) for a period adequate for growth in the controls (those portions of medium which contained no toxicant). Observations of growth were made at 7-day intervals. Minimum inhibitory concentrations are those that prevented complete growth after 28 days.

Chlorococcum hypnosporum = experiment: Growth inhibiting activity against algae in Difco Algae Broth (Chlorococcum hypnosporum); settings: 672 h
Method: as §1, §2, §3, §4, §5, §6, §7

Phormidium inundatum = experiment: Growth inhibiting activity against algae in Difco Algae Broth (Phormidium inundatum); settings: 672 h
Method: as §1, §2, §3, §4, §5, §6, §7

[1] = pH 7, read-out: Minimum inhibitory concentration against algae

SMILES	MIC (Enterobacter aerogenes; pH 6.0) [µg/mL]	MIC (Enterobacter aerogenes; pH 8.0) [µg/mL]	MIC (Aspergillus niger) [µg/mL]	MIC (Chlorella pyrenoidosa; [1]) [µg/mL]	MIC (Chlorococcum hypnosporum; [1]) [µg/mL]	MIC (Phormidium inundatum; [1]) [µg/mL]	MIC (Chlorella pyrenoidosa; C. pyrenoidosa, pH 7, 28 days, read-out: Minimum inhibitory concentration against algae) [µg/mL]	MIC (Chlorococcum hypnosporum; C. hypnosporum, pH 7, 28 days, read-out: Minimum inhibitory concentration against algae) [µg/mL]	MIC (Phormidium inundatum; P. inundatum, pH 7, 28 days, read-out: Minimum inhibitory concentration against algae) [µg/mL]
O=C1OC(CCl)CN1Cl (stereo not drawn) [Compound 2, 3-Chloro-5-chloromethyl-2-oxazolidinone]	8	10	128 (≈ 753 µM)	1 (≈ 5.88 µM)	1 (≈ 5.88 µM)	1 (≈ 5.88 µM)	–	–	–
O=C1OC(CBr)CN1Cl (stereo not drawn) [Compound 4, 3-Chloro-5-bromomethyl-2-oxazolidinone]	10	20	100 (≈ 466 µM)	4 (≈ 18.7 µM)	8 (≈ 37.3 µM)	8 (≈ 37.3 µM)	–	–	–
O=C1OC(CBr)CN1Br (stereo not drawn) [Compound 3, 3-Bromo-5-bromomethyl-2-oxazolidinone]	2	4	100 (≈ 386 µM)	–	–	–	2 (≈ 7.73 µM)	8 (≈ 30.9 µM)	2 (≈ 7.73 µM)
